Reference: publication PMC12045974, “T cell toxicity induced by tigecycline binding to the mitochondrial ribosome” (Nature Communications, 2025)
Values joined by “and” are separate entries in the source; they are usually repeats but may differ in a detail not shown here. Identical values can stand only once.

Key:
Hek293 cells = experiment: Cell viability assay (CCK-8), Hek293 cells; assay type: cell-based, human; conditions: in % (unit assumed)
Experimental: (§1) Cells were seeded in 96-well plates ranging from 2000 to 15,000 cells per well depending on different cell lines and treated with antibiotics in serial dilutions for 72 h (120 h for the preliminary assays) in a humidified incubator (37 °C, 5% CO2) in 100 μl medium (DMEM with 10% FBS, 2.05 mM L-glutamine (Sigma) for Hek293 and Hela; RPMI-1640 with 10% FBS, 2.05 mM L-glutamine (Sigma), and 55 μM 2-ME (Gibco) for Jurkat T cells and PBMCs). Based on preliminary tests, the number of cells per well was optimized to 2000 for Hela and Hek293, 6000 for Jurkat T cells, and 15,000 for PBMCs. The stocks of antibiotics were prepared by dissolving in DMSO. As control, the same amount of DMSO was added to the non-treated groups. Serial drug dilutions were prepared in the corresponding medium to provide a total of 9 concentrations up to 300 μM for tetracyclines and up to 900 μM for additional bacterial protein synthesis inhibitors. After drug treatment, 10% CCK-8 (Cell Counting Kit-8, Sigma Aldrich) (10 μl per well) of the total volume was added to the cells and incubated for 1–4 h depending on cell lines (1 h for Hela and Hek293; 3 h for Jurkat T cells; 4 h for PBMCs) before the evaluation of the effect of antibiotics on cell viability. […] Results were visually confirmed under the light microscope. Each treatment was performed in technical repeats. Dose-response curves were plotted, mean ± SEM was shown, and half maximal inhibitory concentration (IC50) values were calculated in GraphPad Prism.

Jurkat T cells = experiment: Cell viability assay (CCK-8), Jurkat T cells; assay type: cell-based, human; conditions: Jurkat, in % (unit assumed)
Experimental: as §1

HeLa cells = experiment: Cell viability assay (CCK-8), HeLa cells; assay type: cell-based; conditions: Hela, in % (unit assumed)
Experimental: as §1

PBMCs = experiment: Cell viability assay (CCK-8), PBMCs; assay type: cell-based, human; conditions: PBMCs, 72 h, Fig. 1A, in % (unit assumed)
Experimental: as §1, with “Buffy coats were ordered from anonymous blood donors at […]. […] Cells” for “Cells”, “1-4” for “1–4”

Compound	cell vialibity normalized to Vehicle (DMSO) (Hek293 cells; HEK293, dose 0.137174 μM)	cell vialibity normalized to Vehicle (DMSO) (Hek293 cells; HEK293, dose 0.411523 μM)	cell vialibity normalized to Vehicle (DMSO) (Hek293 cells; HEK293, dose 1.23457 μM)	cell vialibity normalized to Vehicle (DMSO) (Hek293 cells; HEK293, dose 11.1111 μM)	cell vialibity normalized to Vehicle (DMSO) (Hek293 cells; HEK293, dose 33.3333 μM)	cell vialibity normalized to Vehicle (DMSO) (Hek293 cells; HEK293, dose 100 μM)	cell vialibity normalized to Vehicle (DMSO) (Hek293 cells; HEK293, dose 300 μM)	cell vialibity normalized to Vehicle (DMSO) (Hek293 cells; HEK293, dose 900 μM)	cell vialibity normalized to Vehicle (DMSO) (Jurkat T cells; dose 0.137174 μM)	cell vialibity normalized to Vehicle (DMSO) (Jurkat T cells; dose 0.411523 μM)	cell vialibity normalized to Vehicle (DMSO) (Jurkat T cells; dose 1.23457 μM)	cell vialibity normalized to Vehicle (DMSO) (Jurkat T cells; dose 3.7037 μM)	cell vialibity normalized to Vehicle (DMSO) (Jurkat T cells; dose 11.1111 μM)	cell vialibity normalized to Vehicle (DMSO) (Jurkat T cells; dose 33.3333 μM)	cell vialibity normalized to Vehicle (DMSO) (HeLa cells; dose 0.137174 μM)	cell vialibity normalized to Vehicle (DMSO) (HeLa cells; dose 0.411523 μM)	cell vialibity normalized to Vehicle (DMSO) (HeLa cells; dose 1.23457 μM)	cell vialibity normalized to Vehicle (DMSO) (HeLa cells; dose 3.7037 μM)	cell vialibity normalized to Vehicle (DMSO) (HeLa cells; dose 11.1111 μM)	cell vialibity normalized to Vehicle (DMSO) (HeLa cells; dose 33.3333 μM)	also measured
CN(C)c1cc(NC(=O)CNC(C)(C)C)c(O)c2c1C[C@H]1C[C@H]3[C@H](N(C)C)C(O)=C(C(N)=O)C(=O)[C@@]3(O)C(O)=C1C2=O [TIGE]	102.411 and 106.702	106.064 and 102.447	90.2128 and 81.4539	38.3156 and 41.7553	48.1383 and 50.0177	40.2704 and 46.6888	31.6312 and 31.5248	7.2695 and 4.539	84.3137 and 94.7712	86.6013 and 87.2549	80.8824 and 75.3268	47.0588 and 43.6275	16.7484 and 17.0752	6.618 and 5.964	99.0957 and 99.8329	99.7643 and 100.836	95.2089 and 96.0446	96.0724 and 96.0446	92.3538 and 93.0501	92.3816 and 88.3426	cell vialibity normalized to Vehicle (DMSO) (HeLa cells; dose 100 μM): 85.5606 and 88.2068; cell vialibity normalized to Vehicle (DMSO) (HeLa cells; dose 300 μM): 79.8329 and 79.3036; cell vialibity normalized to Vehicle (DMSO) (HeLa cells; dose 900 μM): 37.2702 and 29.1086
C[C@H]1c2cccc(O)c2C(=O)C2=C(O)[C@]3(O)C(=O)C(C(N)=O)=C(O)[C@@H](N(C)C)[C@@H]3[C@@H](O)[C@@H]21 [DOX]	97.7577 and 100.716	94.3943 and 94.2074	85.067 and 89.3024	79.6792 and 82.0461	56.1352 and 52.9274	25.8642 and 25.3348	21.3952 and 21.8001	5.254 and 4.351	94.1176 and 108.66	95.2614 and 97.0588	97.7941 and 96.1601	99.2647 and 106.127	82.9248 and 78.6765	10.049 and 10.3758	99.8907	100.467 and 99.0837	99.4691 and 99.9582	100.07 and 93.5237	94.9721 and 92.1866	96.9079 and 96.5877	cell vialibity normalized to Vehicle (DMSO) (Hek293 cells; HEK293, dose 3.7037 μM): 85.4718 and 85.9078; cell vialibity normalized to Vehicle (DMSO) (Jurkat T cells; dose 100 μM): 2.696 and 3.35; cell vialibity normalized to Vehicle (DMSO) (HeLa cells; dose 100 μM): 97.8134 and 89.7632; cell vialibity normalized to Vehicle (DMSO) (HeLa cells; dose 300 μM): 79.6379 and 78.468; cell vialibity normalized to Vehicle (DMSO) (HeLa cells; dose 900 μM): 4.838 and 4.476
medocycline																					cell vialibity normalized to Vehicle (DMSO) (PBMCs; dose 0.0457247 μM): 99.3099 and 104.911 and 97.5874 and 111.701 and 85.5908; cell vialibity normalized to Vehicle (DMSO) (PBMCs; dose 0.137174 μM): 96.2044 and 113.924 and 98.007 and 101.337 and 91.5168; cell vialibity normalized to Vehicle (DMSO) (PBMCs; dose 0.411523 μM): 87.4466 and 108.341 and 104.406 and 103.147 and 93.157; cell vialibity normalized to Vehicle (DMSO) (PBMCs; dose 1.23457 μM): 87.9395 and 106.341 and 92.1504 and 97.7385 and 83.3333; cell vialibity normalized to Vehicle (DMSO) (PBMCs; dose 3.7037 μM): 96.5495 and 93.5206 and 91.1364 and 95.1622 and 83.8095; cell vialibity normalized to Vehicle (DMSO) (PBMCs; dose 11.1111 μM): 80.6934 and 86.1279 and 92.0804 and 88.6726 and 85.0088; cell vialibity normalized to Vehicle (DMSO) (PBMCs; dose 33.3333 μM): 52.5961 and 55.9883 and 48.1294 and 49.4985 and 42.8924; cell vialibity normalized to Vehicle (DMSO) (PBMCs; dose 100 μM): 27.933 and 27.6926 and 32.9196 and 27.237 and 25.2205; cell vialibity normalized to Vehicle (DMSO) (PBMCs; dose 300 μM): 19.208 and 32.8451 and 31.9056 and 30.1672 and 23.6508; cell vialibity normalized to Vehicle (DMSO) (Jurkat T cells; 72 h, dose 0.0457247 μM, Fig. 1A): 102.989 and 99.9557 and 109.669; cell vialibity normalized to Vehicle (DMSO) (Jurkat T cells; 72 h, dose 0.137174 μM, Fig. 1A): 102.725 and 107.699 and 114.702; cell vialibity normalized to Vehicle (DMSO) (Jurkat T cells; 72 h, dose 0.411523 μM, Fig. 1A): 103.253 and 102.434 and 102.384; cell vialibity normalized to Vehicle (DMSO) (Jurkat T cells; 72 h, dose 1.23457 μM, Fig. 1A): 99.4725 and 91.8142 and 98.8083; cell vialibity normalized to Vehicle (DMSO) (Jurkat T cells; 72 h, dose 3.7037 μM, Fig. 1A): 86.4176 and 91.8584 and 75.4404; cell vialibity normalized to Vehicle (DMSO) (Jurkat T cells; 72 h, dose 11.1111 μM, Fig. 1A): 52.967 and 57.0354 and 39.5078; cell vialibity normalized to Vehicle (DMSO) (Jurkat T cells; 72 h, dose 33.3333 μM, Fig. 1A): 13.8022 and 14.0708 and 21.114; cell vialibity normalized to Vehicle (DMSO) (Jurkat T cells; 72 h, dose 100 μM, Fig. 1A): 9.495 and 9.425 and 18.7824; cell vialibity normalized to Vehicle (DMSO) (Jurkat T cells; 72 h, dose 300 μM, Fig. 1A): 7.165 and 7.743 and 8.238
